According to ChEMBL document CHEMBL1147417, “Synthesis of new thiophene and benzo[b]thiophene hydrazide derivatives as human NPY Y(5) antagonists” (Bioorg Med Chem Lett, 2004):
pIC50: −log10 of the molar value.

Experiments:
[1] = molecular target: T1, Neuropeptide Y receptor type 5 (Homo sapiens, UniProt Q15761); experiment: Human Neuropeptide Y5 receptor binding affinity
T1 sequence (Q15761 whole entry): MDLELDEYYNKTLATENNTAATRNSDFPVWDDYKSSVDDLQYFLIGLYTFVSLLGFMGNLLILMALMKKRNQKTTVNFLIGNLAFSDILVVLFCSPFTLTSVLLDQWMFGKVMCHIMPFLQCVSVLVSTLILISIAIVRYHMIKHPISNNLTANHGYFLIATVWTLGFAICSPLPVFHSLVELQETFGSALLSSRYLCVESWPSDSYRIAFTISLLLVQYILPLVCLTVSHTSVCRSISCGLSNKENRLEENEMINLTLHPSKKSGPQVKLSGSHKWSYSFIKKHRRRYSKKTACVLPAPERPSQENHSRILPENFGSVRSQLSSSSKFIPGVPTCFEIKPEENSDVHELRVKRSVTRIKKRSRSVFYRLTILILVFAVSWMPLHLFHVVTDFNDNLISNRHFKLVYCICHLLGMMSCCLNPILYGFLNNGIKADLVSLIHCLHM

[2] = molecular target: T2, Neuropeptide Y receptor type 1 (Homo sapiens, UniProt P25929); experiment: Human Neuropeptide Y1 receptor binding affinity
T2 sequence (P25929 whole entry): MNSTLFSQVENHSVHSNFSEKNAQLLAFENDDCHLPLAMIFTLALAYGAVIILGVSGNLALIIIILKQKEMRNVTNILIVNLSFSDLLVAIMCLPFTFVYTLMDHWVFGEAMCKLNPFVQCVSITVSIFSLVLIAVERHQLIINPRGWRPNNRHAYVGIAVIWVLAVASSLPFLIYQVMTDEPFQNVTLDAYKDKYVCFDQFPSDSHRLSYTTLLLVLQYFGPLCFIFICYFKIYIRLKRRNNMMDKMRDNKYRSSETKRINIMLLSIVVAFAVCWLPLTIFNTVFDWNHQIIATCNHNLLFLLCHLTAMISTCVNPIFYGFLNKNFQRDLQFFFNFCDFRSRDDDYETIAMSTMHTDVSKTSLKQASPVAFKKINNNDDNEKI

SMILES	pIC50 [1]	pIC50 [2]
O=C(NNC(=O)[C@H]1CC[C@H](CNS(=O)(=O)c2ccccc2)CC1)c1cccs1	7.49	< 5.00
O=C(NNC(=O)[C@H]1CC[C@H](CNS(=O)(=O)c2ccc(Br)cc2)CC1)c1cccs1	8.11	< 5.00
O=C(NNC(=O)[C@H]1CC[C@H](CNS(=O)(=O)c2ccc(Cl)cc2)CC1)c1cccs1	7.32	< 5.00
O=C(NNC(=O)[C@H]1CC[C@H](CNS(=O)(=O)c2cccs2)CC1)c1cccs1	7.90	< 5.00
O=C(NNC(=O)[C@H]1CC[C@H](CNS(=O)(=O)c2ccc(Cl)cc2)CC1)c1cc2ccccc2s1	6.55	< 5.00
O=C(NNC(=O)[C@H]1CC[C@H](CNS(=O)(=O)c2cccc3cccnc23)CC1)c1cc2ccccc2s1	7.04	< 5.00
Cc1ccc(S(=O)(=O)NC[C@H]2CC[C@H](C(=O)NNC(=O)c3cccs3)CC2)cc1	7.69	< 5.00
CC(C)c1cc(C(C)C)c(S(=O)(=O)NC[C@H]2CC[C@H](C(=O)NNC(=O)c3cccs3)CC2)c(C(C)C)c1	7.32	< 5.00
O=C(NNC(=O)[C@H]1CC[C@H](CNS(=O)(=O)c2ccccc2)CC1)c1cc2ccccc2s1	6.76	< 5.00
CC(C)c1cc(C(C)C)c(S(=O)(=O)NC[C@H]2CC[C@H](C(=O)NNC(=O)c3cc4ccccc4s3)CC2)c(C(C)C)c1	6.85	< 5.00
O=C(NNC(=O)[C@H]1CC[C@H](CNS(=O)(=O)c2cccc3cccnc23)CC1)c1cccs1	6.83	< 5.00
O=C(NNC(=O)[C@H]1CC[C@H](CNS(=O)(=O)c2cccs2)CC1)c1cc2ccccc2s1	7.94	< 5.00
O=C(NNC(=O)[C@H]1CC[C@H](CNS(=O)(=O)c2ccc(Br)cc2)CC1)c1cc2ccccc2s1	7.55	< 5.00
Cc1ccc(S(=O)(=O)NC[C@H]2CC[C@H](C(=O)NNC(=O)c3cc4ccccc4s3)CC2)cc1	7.37	< 5.00
